In publication PMC4153677, “Probing the Activity Modification Space of the Cysteine Peptidase Cathepsin K with Novel Allosteric Modifiers” (PLoS ONE, 2014):
Read-outs that look alike come from different tables or passages of the source.

How the values were obtained:
[1] = target: T1, Recombinant human cathepsin K (Homo sapiens, UniProt P43235); assay: Kinetic measurements, hydrolysis of the fluorogenic substrate Z-FR↓AMC (general modifier mechanism); assay type: biochemical; set-up: key to α (coefficient, effect of modifier on the affinity for the substrate) / β (coefficient, effect of modifier on the catalytic rate): dimensionless coefficients multiplying KS (α) and kcat (β)
T1 construct: made in house
T1 sequence (P43235 115-329): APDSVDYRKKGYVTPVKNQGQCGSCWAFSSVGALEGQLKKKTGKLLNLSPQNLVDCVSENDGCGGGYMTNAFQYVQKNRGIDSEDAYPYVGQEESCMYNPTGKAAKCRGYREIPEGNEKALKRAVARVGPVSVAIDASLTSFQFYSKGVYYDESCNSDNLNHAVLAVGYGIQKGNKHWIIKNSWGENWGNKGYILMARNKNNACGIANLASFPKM
Method: All modifiers were tested for their effect on the hydrolysis of the low molecular mass synthetic substrate Z-FR↓AMC. Since all progress curves were linear from the beginning of the reaction, initial velocities were calculated from the slopes by linear regression. […] The basic mechanism considered for the analysis of the interactions was the general modifier mechanism shown in Figure 2, in which the effect of modifier is determined by the values of the coefficients α and β that multiply the kinetic parameters K S, K A (α) and k cat (β). In the thermodynamic box embodied in Figure 2, the reciprocal of the coefficient α represents the allosteric coupling constant that characterizes energy linkage between the modifier and the substrate, while a […] represents the effect exerted by the modifier on catalysis. The specific velocity plot was used for the primary screening of the kinetic behavior of the modifiers (Equation 2), as it allows an immediate judgment of the type of interaction and to gather preliminary estimates of the coefficients α and β, as well as of the dissociation constant of the modifier. Refinement was then performed by fitting the rate Equation 1 to data.
Figure 3 Kinetic mechanisms of the identified modifiers. All compounds were characterized by a combination of specific velocity plots (upper panels) and titration curves recorded at fixed substrate concentrations (lower panels). All experiments were performed at 25±1°C in 100 mM sodium acetate buffer pH 5.50 containing 1 mM EDTA and 2.5 mM DTT using the fluorogenic substrate Z-FR↓AMC and at a final enzyme concentration of 0.5 nM.
All kinetic measurements were performed in 100 mM sodium acetate buffer pH 5.50 containing 1 mM EDTA and 2.5 mM dithiothreitol (DTT) in single-use acrylic cuvettes (1×1 cm) thermostatted at 25±1°C with magnetic stirring. The hydrolysis of Z-FR↓AMC was followed fluorometrically at λex 383 nm and λem 455 nm. All tested modifiers were analyzed spectroscopically to determine their absorption properties under the conditions used in the assays. When necessary, appropriate corrections were made to the calculated reaction rates to take into account the inner filter effect.
The effects of the modifiers on enzymatic activity were analyzed with the general modifier mechanism which describes the interaction between enzyme (E), substrate (S) and modifier (A), as shown in Figure 2. Assuming that binding of A to E and ES is at quasi-equilibrium and that steady-state conditions are established in the fluxes around ES and ESA (i.e. the catalytic steps), the reaction rate for the mechanism in Figure 2 is defined by Equation 1: [drawing 2] (1) where v 0 is the reaction rate in the absence of modifier, K A is the equilibrium dissociation constant of the EA complex, α and β are dimensionless coefficients and σ = [S]/K m, approximated to [S]/K s. To determine the mechanism of interaction, plot the kinetic data and calculate preliminary values of the interaction parameters, the specific velocity plot was used. For this purpose, Equation 1 is rewritten as:
The plot of v 0/v A versus σ/(1+σ) produces straight lines with intersection points at v 0/v A = 1, regardless of the interaction mechanism. The parameters α, β and K A are determined by replotting the extrapolated values of the straight lines at σ/(1+σ) = 0 (a) and σ/(1+σ) = 1 (b) versus 1/[A] in the form: [drawing 4] (3) [drawing 5] (4)

[2] = target: T1, Recombinant human cathepsin K; assay: Collagenolytic assays (calf skin collagen, SDS-PAGE); assay type: biochemical; set-up: key to collagen: qualitative value: qualitative values of 1 and 0 were used to signify inhibition and lack thereof, respectively; qualitative values of 1 and 0 were used to signify inhibition and lack thereof, respectively; a value of -1 was used to describe the concentration-dependent roles of glycosaminoglycans
Method: The use of synthetic substrates is practical for the determination of the mechanisms of modification. […] Therefore, all modifiers were also tested with two macromolecular substrates, calf skin collagen and azocasein. The collagenolytic activity was tested quantitatively by following the fragmentation of the characteristic type I collagen pattern into smaller products on SDS-PAGE after incubation of the samples with cathepsin K in the presence and absence of modifiers.
Soluble calf skin collagen (Worthington Biochemical Corporation, USA) was diluted in 100 mM sodium acetate buffer pH 5.50 containing 1 mM EDTA and 5 mM DTT to a final concentration of 0.5 mg/ml. Experiments were started by addition of cathepsin K (final enzyme concentration 0.6 µM) to the reaction mixture containing collagen and increasing concentrations of modifier. All assays were performed at 28°C with shaking on an Eppendorf Thermomixer Comfort. Samples were incubated for 2 hours and the reactions then blocked by addition of E-64 to a final concentration of 1 µM. 10 µg of digested collagen were analyzed by SDS-PAGE on 8% polyacrylamide gels and protein bands visualized by Coomassie Brilliant Blue R-250 staining.

[3] = Solubility in aqueous buffers; assay type: physicochemical; conditions: aqueous buffer, kinetic from dmso stock
Method: Recombinant human cathepsin K was prepared as described previously. Chemical probes were obtained from the U.S. NCI/DTP Open Chemical Repository or from ChemBridge (USA). All compounds were soluble in aqueous buffers at concentrations of at least 2 mM, except for compound 2, which was soluble up to a maximal concentration of 1 mM. Stock solutions of all compounds were prepared in DMSO. The fluorogenic substrate Z-FR↓AMC (benzyloxycarbonyl-Phe-Arg-7-amino-4-methylcoumarin) was from Bachem (Switzerland).

Z-FRAMC: geometric mean of residual activities (vA) ([1]; at 0.1×Km and 10×Km substrate, modifier 10×KA, calculated with Equation 1 from α and β of Table 3, unmodified enzyme = 1.00): 0.42
β (coefficient, effect of modifier on the catalytic rate) ([1]; substrate Z-FR↓AMC, pH 5.50, 25°C, 0.5 nM enzyme): 0.74±0.13
Kd ([1]; substrate Z-FR↓AMC, pH 5.50, 25°C, 0.5 nM enzyme, read-out: K A (equilibrium dissociation constant of the EA complex)): 150 ± 50 µM
collagen: qualitative value ([2]; activity modification matrix): 1
IC50 ([2]; degradation of calf skin collagen, read-out: IC 50 (estimated)): ~500 µM
IC50 ([2]; substrate calf skin collagen 0.5 mg/ml, 0.6 µM cathepsin K, 2 hours 28°C, pH 5.50, estimated, read-out: IC 50): 500 µM
solubility [3]: ≤ 1000 µM
Compound: OC(c1cc(-c2ccc(C(F)(F)F)cc2)nc(C(F)(F)F)c1)C1CCCCN1 (centres unmarked) [Compound 2, Piperidin-2-yl-[2-(trifluoromethyl)-6-[4-(trifluoromethyl)phenyl]pyridin-4-yl] methanol]
Effect on degradation of calf skin collagen ([2]; SDS-PAGE, increasing concentrations of modifier): concentration-dependent inhibitory effect
